Data as given in patent US9791463B2, “Methods for the selective detection of alkyne-presenting molecules and related compositions and systems” (Lawrence Livermore National Security, LLC, priority 2013, dated 2017).

Tests used:
[1] = Fluorescence measurement of azido probe and EE2-probe adduct (spectrometer); format: physicochemical; settings: excited at λ=319 nm; initial measurements
Description: A feature of the probes herein described is the means by which a readable fluorescent signal can be reliably detected once the azidonaphthalimidoyl probe (see Example 1, compound 3) reacts with EE2. Thus, fluorescent measurements can be conducted on azido probe 3 (Example 1) before and after its reaction with commercially available 17α-ethinylestradiol (EE2, 1) (FIG. 5). […] Thus, the fluorescence profile of the EE2-probe adduct 4 can be obtained at different concentrations in order to obtain the lowest limit of detection for this analytical approach (Panel 1 of FIG. 5). Once that lower limit has been determined, a second set of experiments can be undertaken to test the efficacy and fidelity of the Click reaction. […] After the overnight run, the samples can be extracted into an organic layer (CH2Cl2 or diethyl ether), evaporated, redissolved in the solvent of choice for the fluorescence measurements (e.g. H2O, or a combination of MeOH/H2O) and their fluorescent intensities measured. This second set of experiments is designed to test the real case scenario where the actual, unknown EE2 concentration in a given sample can be detected using the azido probe.
Once an azido probe as herein described (e.g. 3) is synthesized (Example 1), it can be reacted with commercially available EE2. […] The calculated Stokes' shift based on this preliminary measurements is Δλ=48 nm.

[2] = Visual fluorescence analysis with a UV lamp (long wavelength, 365 nm); format: physicochemical; settings: λ=365 nm; equimolar solutions of probe and adduct
Description: Both vials contain equimolar amounts of the azido probe and EE2-probe adduct respectively.
Once an azido probe as herein described (e.g. 3) is synthesized (Example 1), it can be reacted with commercially available EE2. For example, reaction of azido probe 3 with EE2 in the presence of CuSO4.5H2O and sodium ascorbate in a 2:1 tert-butanol-water mixture at room temperature overnight yielded the triazole-containing EE2-probe adduct 4 in nearly quantitative yield (>95%) as an off-white solid after column chromatography. The use of another source of Cu(I) ion such as CuBr or CuI can be employed in this step, eliminating the need for sodium ascorbate. However, copper(I) halides can be avoided if a reduction in unwanted background fluorescence when using the spectrophotometer is desired. If a cost reduction is desired, instead of copper(I) halides readily available and inexpensive Cu(II) sulfate pentahydrate and sodium ascorbate can be purchased in multigram quantities and used in reactions with EE2. […] The calculated Stokes' shift based on this preliminary measurements is Δλ=48 nm.

With `[N-]=[N+]=Nc1ccc2c3c(cccc13)C(=O)N(CCOCCO)C2=O` [Probe 3] the “fluorescence of the probe” value [1] was “marginal fluorescence” and the “qualitative fluorescence under UV lamp” value [2] was “does not”.
